The source of these data is patent US10214544B2, “Imidazopyridazine and imidazothiadiazole compounds” (Universite de Montreal, priority 2015, dated 2019).

Structures are written as SMILES. Bounds are passed on as bounds.

Sequence of PAR4 (Q96RI0 18-385): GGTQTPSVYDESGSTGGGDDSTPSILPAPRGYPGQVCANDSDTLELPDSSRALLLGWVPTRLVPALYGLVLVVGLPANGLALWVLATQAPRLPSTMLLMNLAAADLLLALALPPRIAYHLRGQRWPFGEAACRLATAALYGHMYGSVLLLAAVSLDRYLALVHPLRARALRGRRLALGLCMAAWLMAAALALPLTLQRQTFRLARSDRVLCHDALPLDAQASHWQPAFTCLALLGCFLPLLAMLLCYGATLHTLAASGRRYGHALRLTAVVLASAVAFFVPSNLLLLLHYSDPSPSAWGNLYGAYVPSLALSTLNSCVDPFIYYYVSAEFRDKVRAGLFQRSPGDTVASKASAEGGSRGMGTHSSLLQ

This assay addresses PAR4 (Homo sapiens (Human), UniProt Q96RI0). Briefly: FLIPR assay in PAR4-expressing HEK293 cells (PAR4 antagonist activity). It is filed as cell-based. The following applies: inhibition of H-Ala-Phe(4-F)-Pro-Gly-Trp-Leu-Val-Lys-Asn-Gly-NH2-induced intracellular calcium mobilization. From the text: The FLIPR assay is an exemplary in vitro assay for measuring the activity of the PAR4 antagonists of the present invention. In this assay, intracellular calcium mobilization is induced in PAR4 expressing cells by a PAR4 agonist and calcium mobilization is monitored. See, e.g., Example A.
HEK293 cells stably expressing PAR4 were generated by a standard method of transfection of human PAR4 (F2R23) cDNA expression vector and selected based on PAR4 protein expression or mRNA expression. […] These cells also express endogenous PAR1 and can elicit calcium signal upon stimulation with PAR1 agonist peptide. Therefore, the same cells were also used to determine selectivity against PAR1 and agonist activity for both receptors. Cells from HEK293 PAR4 Clone 1.2A (BMS Arctic ID 383940) were propagated and used for calcium mobilization studies.
FLIPR-based calcium mobilization assay in HEK293 cells was used to measure PAR4 antagonism, agonism, and selectivity against PAR1. The activity of the PAR4 antagonists of the present invention were tested in PAR4 expressing cells by monitoring H-Ala-Phe(4-F)-[…]NH2-induced intracellular calcium mobilization. Counter screens for agonist activity and PAR1 antagonist activity were also performed. Briefly, PAR1/PAR4-expressing HEK293 cells were grown in DMEM (Life Technology, Grand Island, N.Y.) containing 10% heat-inactivated FBS, 1% Penicillin-Streptomycin, 10 μg/mL blasticidin, and 100 μg/mL Zeocin at 37° C. with 5% CO2. Cells were plated overnight prior to the experiment in a black 384-well Purecoat Amine clear bottom plate (Becton Dickinson Biosciences, San Jose, Calif.) at 10,000 cells/well in 30 μL growth medium and incubated in a humidified chamber at 37° C. with 5% CO2 overnight. Prior to compound addition, the cell medium was replaced with […] of 1× calcium and magnesium-containing Hank's Balanced Saline Solution (HBSS) (with 20 mM HEPES) and 1:1000 diluted fluorescent calcium indicator (Codex Biosolutions, Gaithersburg, Md.). After a 30 minute incubation period at 37° C. and a further 30 minute incubation and equilibration period at room temperature, 20 μL test compound (diluted in 1× HBSS buffer) was added at various concentrations at 0.17% dimethyl sulfoxide (DMSO) final concentration. Changes in fluorescence intensity were measured using a Functional Drug Screening System (FDSS, Hamamatsu, Japan) to determine agonist activities. The cells were then incubated for 30 minutes at room temperature followed by addition of 20 μL of agonist peptide for antagonist activity measurement. […] Compound potency was derived from 11-point concentration-response curves.
The following Table sets out results obtained employing various compounds of the invention tested in the FLIPR assay. As indicated above, the FLIPR assay, an in vitro assay, measures the PAR4 antagonist activity of compounds tested as described in Example A.
Background: Calcium flux is commonly read through the fluorescence of an indicator in the cells.
For the molecule `COc1cc(OCc2cccc(NC(=O)c3ccco3)c2)c2cc(-c3cn4nc(OC)sc4n3)oc2c1` [Example 134], the EC50 is 5 nM. `COc1cc(OCc2cccc(NC(=O)c3ccccc3Cl)c2)c2cc(-c3cn4nc(OC)sc4n3)oc2c1` [Example 25]: the EC50 was 1.7 nM. On to `COc1cc(OCc2cccc(NC(=O)Cc3cc(C)no3)c2)c2cc(-c3cn4nc(OC)sc4n3)oc2c1` [Example 47], for which the EC50 came out at 6.9 nM. As for `COc1cc(OCc2cccc(NC(=O)c3ccc(I)cc3)c2)c2cc(-c3cn4nc(OC)sc4n3)oc2c1` [Example 39], the figure is 2.4 nM; as for `COc1cc(OCc2cccc(NS(=O)(=O)c3ccccc3)c2)c2cc(-c3cn4nc(OC)sc4n3)oc2c1` [Example 7, N-(3-(((6-methoxy-2-(2-methoxyimidazo[2,1-b][1,3,4]thiadiazol-6-yl)benzofuran-4-yl)oxy)methyl)phenyl)benzenesulfonamide], 10 nM. With `COc1cc(OCc2cccc(NC(=O)c3ccccc3F)c2)c2cc(-c3cn4nc(OC)sc4n3)oc2c1` [Example 26], the EC50 is 0.75 nM. As for `COc1cc(OCc2cccc(NC(=O)c3c(Cl)cccc3Cl)c2)c2cc(-c3cn4nc(OC)sc4n3)oc2c1` [Example 12], the figure is 1.5 nM; as for `COc1cc(OCc2cccc(NC(=O)OC(C)(C)C)c2)c2cc(-c3cn4nc(OC)sc4n3)oc2c1` [Example 3, tert-Butyl (3-(((6-methoxy-2-(2-methoxyimidazo[2,1-b][1,3,4]thiadiazol-6-yl)benzofuran-4-yl)oxy)methyl)phenyl)carbamate], 2.6 nM.

`COc1cc(OCc2cccc(NC(=O)CC3CCCC3)c2)c2cc(-c3cn4nc(OC)sc4n3)oc2c1` [Example 138]: the EC50 worked out at 2.5 nM.

Take `CCCc1ccc(C(=O)Nc2cccc(COc3cc(OC)cc4oc(-c5cn6nc(OC)sc6n5)cc34)c2)cc1` [Example 31]: the EC50 came to 1.3 nM. In the case of `COc1cc(OCc2cccc(NC(=O)c3sc(C)nc3C)c2)c2cc(-c3cn4nc(OC)sc4n3)oc2c1` [Example 50], the EC50 amounted to 7.4 nM. Consider `COc1cc(OCc2ccc3c(c2)N(C(=O)c2cccc(F)c2)CC3)c2cc(-c3cn4nc(OC)sc4n3)oc2c1` [Example 102], for which the EC50 turned out to be 4.1 nM. Regarding `COc1cc(OCc2cccc(N(C)C(=O)c3cncnc3)c2)c2cc(-c3cn4nc(OC)sc4n3)oc2c1` [Example 92], the EC50 came out at 3.5 nM. As for `COc1cc(OCc2cccc(N(C)C(=O)c3ccccc3OC)c2)c2cc(-c3cn4nc(OC)sc4n3)oc2c1` [Example 86], the figure is 1.8 nM; as for `COc1cc(OCc2cccc(NC(=O)c3ccccc3C)c2)c2cc(-c3cn4nc(OC)sc4n3)oc2c1` [Example 27], 0.87 nM; as for `COc1cc(OCc2cccc(N)c2)c2cc(-c3cn4nc(OC)sc4n3)oc2c1` [Example 4, 3-(((6-Methoxy-2-(2-methoxyimidazo[2,1-b][1,3,4]thiadiazol-6-yl)benzofuran-4-yl)oxy)methyl)aniline], 17 nM. As for `COc1cc(OCc2cccc3c2CCN3C(=O)c2ccccc2)c2cc(-c3cn4nc(OC)sc4n3)oc2c1` [Example 115, (4-(((6-Methoxy-2-(2-methoxyimidazo[2,1-b][1,3,4]thiadiazol-6-yl)benzofuran-4-yl)oxy)methyl)indolin-1-yl)(phenyl)methanone], the figure is 96 nM. `COc1cc(OCc2ccc3c(c2)N(C(=O)c2ccccc2OC)CC3)c2cc(-c3cn4nc(OC)sc4n3)oc2c1` [Example 103]: the EC50 was determined as 4.5 nM. Turning to `COc1cc(OCc2cccc(NC(=O)CC3CCCCC3)c2)c2cc(-c3cn4nc(OC)sc4n3)oc2c1` [Example 146], the EC50 turned out to be 7.5 nM. As for `COc1cc(OCc2cccc(NC(=O)c3ccccc3OC)c2)c2cc(-c3cn4nc(OC)sc4n3)oc2c1` [Example 29], the figure is 1.1 nM. As for `COc1cc(OCc2cccc(NC(=O)c3cccc(Br)c3)c2)c2cc(-c3cn4nc(OC)sc4n3)oc2c1` [Example 10], the figure is 1.9 nM; as for `COc1cc(OCc2cccc(NC(=O)c3ccno3)c2)c2cc(-c3cn4nc(OC)sc4n3)oc2c1` [Example 155], 2.3 nM. With `COc1cc(OCc2cccc(NC(=O)c3cccc(C#N)c3)c2)c2cc(-c3cn4nc(OC)sc4n3)oc2c1` [Example 16], the EC50 came to 1.4 nM.

Turning to `COc1cc(OCc2cccc(NC(=O)c3ccc4c(c3)OCO4)c2)c2cc(-c3cn4nc(OC)sc4n3)oc2c1` [Example 22], the EC50 came out at 1.1 nM. Under `COc1cc(OCc2cccc3c2CCN3C(=O)c2csc(-c3ccccc3)n2)c2cc(-c3cn4nc(OC)sc4n3)oc2c1` [Example 119] stands 1700 nM; under `COc1cc(OCc2cccc(NC(=O)c3ccccn3)c2)c2cc(-c3cn4nc(OC)sc4n3)oc2c1` [Example 139], 2.7 nM; under `COc1cc(OCc2cccc(NC(=O)c3cccc(Cl)c3F)c2)c2cc(-c3cn4nc(OC)sc4n3)oc2c1` [Example 151], 3.4 nM. Consider `COc1cc(OCc2cccc(NC(=O)c3cccc(C(F)(F)F)c3)c2)c2cc(-c3cn4nc(OC)sc4n3)oc2c1` [Example 149], for which the EC50 was 2 nM. In the case of `COc1cc(OCc2cccc(NC(=O)NCc3ccccc3)c2)c2cc(-c3cn4nc(OC)sc4n3)oc2c1` [Example 38], the EC50 stood at 4.8 nM.

Consider `COc1cc(OCc2cccc(NC(=O)c3ccc(C(C)(C)C)cc3)c2)c2cc(-c3cn4nc(OC)sc4n3)oc2c1` [Example 37], for which the EC50 worked out at 2.5 nM.

Consider `COc1cc(OCc2cccc(N(C)C=O)c2)c2cc(-c3cn4nc(OC)sc4n3)oc2c1` [Example 97], for which the EC50 amounted to 2.5 nM. On to `COc1cc(OCc2cccc3c2CCN3C(=O)c2ccccc2C)c2cc(-c3cn4nc(OC)sc4n3)oc2c1` [Example 122], for which the EC50 worked out at 5 nM. In the case of `COc1cc(OCc2cccc(NC(=O)c3ccc(F)cc3F)c2)c2cc(-c3cn4nc(OC)sc4n3)oc2c1` [Example 152], the EC50 was 1.3 nM. Under `COc1cc(OCc2cccc(NC(=O)c3c(C)noc3-c3ccccc3)c2)c2cc(-c3cn4nc(OC)sc4n3)oc2c1` [Example 59] stands 3.5 nM; under `COc1cc(OCc2cccc3c2CCN3C(C)=O)c2cc(-c3cn4nc(OC)sc4n3)oc2c1` [Example 117], above 3300 nM. With `COc1cc(OCc2cccc(NC(=O)c3ccc(F)c(C(F)(F)F)c3)c2)c2cc(-c3cn4nc(OC)sc4n3)oc2c1` [Example 30], the EC50 was 1.8 nM. Under `COc1cc(OCc2cccc(NC(=O)c3cc(F)cc(F)c3)c2)c2cc(-c3cn4nc(OC)sc4n3)oc2c1` [Example 159] stands 1.6 nM. For the molecule `COc1cc(OCc2cccc(NC(=O)c3ccc(C)cc3)c2)c2cc(-c3cn4nc(OC)sc4n3)oc2c1` [Example 32], the EC50 is 1.6 nM. `COc1cc(OCc2cccc3c2CCN3C(=O)c2csc(C(F)(F)F)n2)c2cc(-c3cn4nc(OC)sc4n3)oc2c1` [Example 118]: the EC50 stood at 16 nM. In the case of `COc1cc(OCc2cccc(NC(=O)c3cccnc3Cl)c2)c2cc(-c3cn4nc(OC)sc4n3)oc2c1` [Example 58], the EC50 was found to be 0.74 nM. As for `COc1cc(OCc2cccc(NC(=O)c3ccc(Cl)nc3)c2)c2cc(-c3cn4nc(OC)sc4n3)oc2c1` [Example 53], the figure is 3.5 nM; as for `COc1cc(OCc2cccc(NC(=O)C3CCOCC3)c2)c2cc(-c3cn4nc(OC)sc4n3)oc2c1` [Example 165], 4.6 nM. As for `COc1cc(OCc2cccc(NC(=O)c3cccnc3)c2)c2cc(-c3cn4nc(OC)sc4n3)oc2c1` [Example 148], the figure is 6.8 nM.

One may read the EC50 as the concentration that produces a half-maximal response.
